The results in this text go back to ChEMBL document CHEMBL3797164, “Transfer of SAR information from hypotensive indazole to indole derivatives acting at α-adrenergic receptors: In vitro and in vivo studies” (Eur J Med Chem, 2016).

The target in one test is Nischarin (Rattus norvegicus, UniProt Q4G017). The test is described as follows: Displacement of [3H]clonidine from Imidazoline receptor 1 in Sprague-Dawley rat kidney P2 membranes after […] by liquid scintillation counting.
Test [1] concerns the target T1, Adrenergic receptor alpha-1 (Rattus norvegicus, UniProt P15823+P23944+P43140).
T1 sequence (P15823 whole entry): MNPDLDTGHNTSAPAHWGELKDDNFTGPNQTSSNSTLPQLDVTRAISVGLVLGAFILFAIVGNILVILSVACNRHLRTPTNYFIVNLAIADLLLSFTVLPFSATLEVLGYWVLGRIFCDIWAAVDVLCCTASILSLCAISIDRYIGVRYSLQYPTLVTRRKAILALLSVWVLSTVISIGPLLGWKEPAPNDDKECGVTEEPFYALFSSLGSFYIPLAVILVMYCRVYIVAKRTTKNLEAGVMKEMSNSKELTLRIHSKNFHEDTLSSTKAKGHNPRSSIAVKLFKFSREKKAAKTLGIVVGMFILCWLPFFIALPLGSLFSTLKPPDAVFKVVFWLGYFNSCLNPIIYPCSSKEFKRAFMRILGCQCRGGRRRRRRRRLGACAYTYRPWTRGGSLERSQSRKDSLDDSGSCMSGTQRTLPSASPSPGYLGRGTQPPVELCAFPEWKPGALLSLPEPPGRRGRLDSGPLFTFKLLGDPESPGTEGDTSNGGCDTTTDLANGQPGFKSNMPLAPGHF
T1 sequence (P23944 whole entry): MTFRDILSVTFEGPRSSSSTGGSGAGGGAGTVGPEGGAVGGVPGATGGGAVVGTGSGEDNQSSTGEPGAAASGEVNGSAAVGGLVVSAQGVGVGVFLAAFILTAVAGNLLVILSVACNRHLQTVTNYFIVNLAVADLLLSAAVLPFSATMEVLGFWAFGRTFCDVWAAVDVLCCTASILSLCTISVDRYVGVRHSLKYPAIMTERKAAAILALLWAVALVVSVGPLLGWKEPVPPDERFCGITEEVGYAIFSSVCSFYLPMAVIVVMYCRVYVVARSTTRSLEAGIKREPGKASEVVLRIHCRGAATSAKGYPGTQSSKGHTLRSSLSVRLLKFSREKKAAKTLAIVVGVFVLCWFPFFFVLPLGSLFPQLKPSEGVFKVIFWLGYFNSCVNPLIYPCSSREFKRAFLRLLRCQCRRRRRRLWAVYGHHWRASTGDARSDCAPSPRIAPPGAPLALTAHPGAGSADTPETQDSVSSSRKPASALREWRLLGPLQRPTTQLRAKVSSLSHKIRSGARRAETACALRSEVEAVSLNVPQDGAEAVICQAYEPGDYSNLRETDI
T1 sequence (P43140 whole entry): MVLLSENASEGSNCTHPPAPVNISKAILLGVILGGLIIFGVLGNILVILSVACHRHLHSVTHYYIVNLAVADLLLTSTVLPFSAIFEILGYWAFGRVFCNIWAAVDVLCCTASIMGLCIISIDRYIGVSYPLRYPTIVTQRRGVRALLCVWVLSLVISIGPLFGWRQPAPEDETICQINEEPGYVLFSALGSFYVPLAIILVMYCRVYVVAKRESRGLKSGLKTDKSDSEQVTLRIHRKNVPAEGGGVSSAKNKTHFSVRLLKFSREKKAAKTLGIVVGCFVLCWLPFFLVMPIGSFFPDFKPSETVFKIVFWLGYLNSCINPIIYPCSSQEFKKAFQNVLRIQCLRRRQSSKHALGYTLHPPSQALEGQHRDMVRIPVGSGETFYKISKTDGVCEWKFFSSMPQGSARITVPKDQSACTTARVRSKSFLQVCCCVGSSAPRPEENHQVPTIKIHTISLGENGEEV
In words: Displacement of [3H]prazosine from Alpha-1 adrenergic receptor in Sprague-Dawley rat brain P2 membranes after […] by liquid scintillation counting. For orientation: Loss of bound radioactivity is the signal in a displacement assay; it reports binding, not function.

Test [2] has as its target T2, Adrenergic receptor alpha-2 (Rattus norvegicus, UniProt P22086+P19328+P22909).
T2 sequence (P22086 whole entry): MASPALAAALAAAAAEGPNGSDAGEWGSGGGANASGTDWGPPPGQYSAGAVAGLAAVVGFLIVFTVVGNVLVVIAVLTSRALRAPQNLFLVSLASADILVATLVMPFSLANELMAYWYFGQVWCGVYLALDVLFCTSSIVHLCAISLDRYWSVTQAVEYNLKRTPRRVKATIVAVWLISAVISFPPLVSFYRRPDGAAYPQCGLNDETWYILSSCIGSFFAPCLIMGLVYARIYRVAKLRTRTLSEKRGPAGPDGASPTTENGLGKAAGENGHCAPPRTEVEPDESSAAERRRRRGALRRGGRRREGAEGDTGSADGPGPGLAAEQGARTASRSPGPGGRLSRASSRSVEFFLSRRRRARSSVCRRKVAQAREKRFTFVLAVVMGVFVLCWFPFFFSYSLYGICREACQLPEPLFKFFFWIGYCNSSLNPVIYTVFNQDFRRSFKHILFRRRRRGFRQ
T2 sequence (P19328 whole entry): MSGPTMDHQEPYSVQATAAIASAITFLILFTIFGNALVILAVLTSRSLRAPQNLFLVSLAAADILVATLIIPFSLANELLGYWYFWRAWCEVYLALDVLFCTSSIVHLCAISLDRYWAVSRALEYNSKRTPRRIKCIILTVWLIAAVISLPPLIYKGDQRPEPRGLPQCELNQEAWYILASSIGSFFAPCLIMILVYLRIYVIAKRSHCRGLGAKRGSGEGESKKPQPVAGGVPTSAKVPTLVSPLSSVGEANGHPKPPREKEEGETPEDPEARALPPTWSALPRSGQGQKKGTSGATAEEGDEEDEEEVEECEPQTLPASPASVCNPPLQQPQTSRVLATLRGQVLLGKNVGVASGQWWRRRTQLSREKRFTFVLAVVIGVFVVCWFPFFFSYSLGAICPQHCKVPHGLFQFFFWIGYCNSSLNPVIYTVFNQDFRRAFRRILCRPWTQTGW
T2 sequence (P22909 whole entry): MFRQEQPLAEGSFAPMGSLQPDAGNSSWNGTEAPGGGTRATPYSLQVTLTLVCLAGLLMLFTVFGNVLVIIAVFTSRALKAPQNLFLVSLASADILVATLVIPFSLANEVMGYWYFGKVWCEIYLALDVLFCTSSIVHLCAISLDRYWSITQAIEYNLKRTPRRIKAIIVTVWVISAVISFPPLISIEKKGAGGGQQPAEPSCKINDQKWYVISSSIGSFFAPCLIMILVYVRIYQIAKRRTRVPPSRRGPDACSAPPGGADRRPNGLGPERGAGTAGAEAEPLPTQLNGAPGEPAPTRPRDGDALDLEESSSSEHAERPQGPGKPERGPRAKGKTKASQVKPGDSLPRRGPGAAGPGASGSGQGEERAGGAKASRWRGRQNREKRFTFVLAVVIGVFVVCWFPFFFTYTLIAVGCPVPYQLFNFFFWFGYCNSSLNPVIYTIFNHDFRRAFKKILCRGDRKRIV
The test is described as follows: Displacement of [3H]RX821002 from Alpha-2 adrenergic receptor in Sprague-Dawley rat brain P2 membranes after […] by liquid scintillation counting.

The nature of test [3]: Displacement of [3H]2BFI from Imidazoline receptor 2 in Sprague-Dawley rat brain P2 membrans after […] by liquid scintillation counting.

Nischarin, sequence (Q4G017 whole entry): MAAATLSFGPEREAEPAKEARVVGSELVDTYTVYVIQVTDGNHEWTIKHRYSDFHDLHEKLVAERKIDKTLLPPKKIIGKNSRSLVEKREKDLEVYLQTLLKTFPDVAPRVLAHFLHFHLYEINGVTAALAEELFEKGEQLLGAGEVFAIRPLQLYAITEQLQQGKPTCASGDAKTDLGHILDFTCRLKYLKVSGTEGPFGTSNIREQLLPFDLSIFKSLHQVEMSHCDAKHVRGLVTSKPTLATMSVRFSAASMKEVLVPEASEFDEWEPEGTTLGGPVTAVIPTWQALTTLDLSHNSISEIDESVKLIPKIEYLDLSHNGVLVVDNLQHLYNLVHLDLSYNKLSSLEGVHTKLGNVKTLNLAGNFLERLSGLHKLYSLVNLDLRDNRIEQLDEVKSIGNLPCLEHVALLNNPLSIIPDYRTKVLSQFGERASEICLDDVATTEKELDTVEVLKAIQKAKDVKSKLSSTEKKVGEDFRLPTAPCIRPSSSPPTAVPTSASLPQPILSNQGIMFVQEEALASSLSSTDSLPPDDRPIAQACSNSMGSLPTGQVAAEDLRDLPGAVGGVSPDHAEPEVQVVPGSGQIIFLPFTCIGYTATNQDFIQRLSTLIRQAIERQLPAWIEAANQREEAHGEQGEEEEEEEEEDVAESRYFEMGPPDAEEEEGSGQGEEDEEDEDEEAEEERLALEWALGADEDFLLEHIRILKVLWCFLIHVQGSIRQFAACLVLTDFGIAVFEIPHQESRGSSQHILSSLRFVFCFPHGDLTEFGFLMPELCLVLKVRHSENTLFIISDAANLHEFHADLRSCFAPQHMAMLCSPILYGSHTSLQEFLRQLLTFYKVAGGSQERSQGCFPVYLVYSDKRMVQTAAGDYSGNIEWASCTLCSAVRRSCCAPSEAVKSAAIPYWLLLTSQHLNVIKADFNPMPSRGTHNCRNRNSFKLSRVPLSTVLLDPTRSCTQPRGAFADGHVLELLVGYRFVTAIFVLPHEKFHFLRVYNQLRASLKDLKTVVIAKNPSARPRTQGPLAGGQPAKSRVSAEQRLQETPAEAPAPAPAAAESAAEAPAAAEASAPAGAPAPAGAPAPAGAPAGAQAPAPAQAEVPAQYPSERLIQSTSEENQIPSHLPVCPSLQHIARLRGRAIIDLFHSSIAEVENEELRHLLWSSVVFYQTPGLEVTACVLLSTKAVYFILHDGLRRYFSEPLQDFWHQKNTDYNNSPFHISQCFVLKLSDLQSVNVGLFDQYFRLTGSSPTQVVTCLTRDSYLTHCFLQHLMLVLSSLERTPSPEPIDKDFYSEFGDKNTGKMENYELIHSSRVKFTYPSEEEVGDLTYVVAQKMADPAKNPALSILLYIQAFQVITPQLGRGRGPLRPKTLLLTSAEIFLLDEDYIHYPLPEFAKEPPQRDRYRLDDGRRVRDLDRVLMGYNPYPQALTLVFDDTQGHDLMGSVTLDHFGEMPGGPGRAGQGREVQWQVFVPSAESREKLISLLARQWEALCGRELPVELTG

Turning to `Cl.Fc1cccc2ccn(CC3=NCCN3)c12`, the Ki (as a rule, the dissociation constant of the complex between target and ligand, obtained from inhibition or displacement) came out at 9.63 µM on Nischarin, 36.7 nM in test [1], 16.57 nM in test [2] and 32.1 nM in test [3].
Take `Cl.Clc1ccc2ccn(CC3=NCCN3)c2c1`: the Ki at Nischarin turned out to be 5.58 µM; in test [1] it was 228.7 nM; in test [2], 94.5 nM; in test [3], 48.5 nM.
`Brc1cccc2ccn(CC3=NCCN3)c12.Cl`: the Ki at Nischarin stood at 0.0792 µM; in test [1] it was 7.91 nM; in test [2], 18.3 nM; in test [3] it was 254 nM.
As to `Br.COc1cccc2ccn(CC3=NCCN3)c12`, the Ki turned out to be 588 µM on Nischarin, 394.2 nM in test [1], 280 nM in test [2] and 2470 nM in test [3].
In the same order, the values of `Brc1cccc2c1ccn2CC1=NCCN1.Cl` are 0.468 µM, 257.7 nM, 84.4 nM and 179 nM.
Take `Brc1ccc2c(ccn2CC2=NCCN2)c1.Cl`: the Ki is 10.5 µM on Nischarin, 1348 nM in test [1], 596.7 nM in test [2] and 30.3 nM in test [3].
In the same order, the values of `Br.c1ccc(COc2cccc3ccn(CC4=NCCN4)c23)cc1` are 36.3 µM, 381.8 nM, 5241 nM and 10400 nM.
As to `Cl.Fc1cccc2c1ccn2CC1=NCCN1`, the Ki at Nischarin amounted to 14.6 µM; in test [1], 27.56 nM; in test [2], 46.97 nM; in test [3] it was 249 nM.
In the same order, the values of `Cl.Fc1ccc2c(ccn2CC2=NCCN2)c1` are 0.0321 µM, 306.7 nM, 68.43 nM and 66.3 nM.
In the same order, the values of `Cl.Fc1ccc2ccn(CC3=NCCN3)c2c1` are 0.789 µM, 87.83 nM, 15.9 nM and 240 nM.
As for `CCc1cccc2ccn(CC3=NCCN3)c12.Cl`, the Ki at Nischarin is 45.8 µM; in test [1] it was 439.4 nM; in test [2], 71.7 nM; in test [3], 880 nM.
